Results published in US20120077836A1, “METHODS OF ADMINISTERING (4AR,10AR)-1-N-PROPYL-1,2,3,4,4A,5,10,10A-OCTAHYDROBENZO [G] QUINOLINE-6,7-DIOL AND RELATED COMPOUNDS ACROSS THE ORAL MUCOSA, THE NASAL MUCOSA OR THE SKIN AND PHARMACEUTICAL COMPOSITIONS THEREOF” (priority 2009, published 2012).
Several values for one entry are separate records, joined by “and”; a condition that tells them apart may be missing. Equal entries are not always repeated. Structures can show the parent of a compound that is named as a salt. Where two headings read alike, the source gives them in different places.

Test: Intravenous and buccal pharmacokinetic study in the minipig
Format: in vivo
Method: The test article was compound 10. The vehicles for the test article were Sterile saline (0.9% NaCl) (intravenous administration) supplied by Baxter, Norfolk or Ascorbic acid reconstituted in Water for Injection (buccal administration) supplied by VWR International, Leicestershire. Formulations were prepared on the day of dosing.
Three male minipigs of the Göttingen ApS strain were supplied by Ellegaard Göttingen, Dalmose, Denmark. At initiation of dosing, animals were approximately 15 to 17 weeks old. Each animal was dosed once on three separate occasions according to the following study design:
Animals were deprived of food overnight and anaesthetised with isoflurane in oxygen (administered by facemask), prior to each dosing occasion.
Intravenous administrations were performed by slow manual injection via a temporary catheter placed in the ear vein whilst under anaesthesia, animals were allowed to recover from the anaesthesia immediately after dosing. Whilst anaesthetised, a catheter was inserted into the jugular vein and secured in place for the purpose of blood collection. The catheter was filled with heparin (250 iu/mL in 0.9% sodium chloride). The exterior portion of the catheter was routed from the ventral neck to the dorsum of the minipig and protected by bandaging. The distal end of the catheter was capped and placed in a re-sealable pouch within the bandage. The jugular catheter was retained in place and flushed with heparinised saline every 24 hours.
Buccal administrations were performed by applying the test formulation to the buccal membrane for 5 minutes while the animal was anaesthetised. Any residual formulation remaining in the mouth after the 5 minute application was […]. Animals were allowed to recover from the anaesthesia immediately after dosing.
, all animals on Day 3 following buccal administration of a low dose and all animals on Day 5 following buccal administration of a high dose for pharmacokinetic analysis. The samples (1.0 mL) were collected from the jugular vein (via catheter) into tubes containing EDTA anticoagulant. Prior to addition of the blood sample, 100 microL of a stabiliser (2% beta-mercaptoethanol containing 20 mg/mL ascorbic acid) was added to each pot. The stabiliser was prepared fresh on each day of sample collection. Samples were collected as follows: • Day 1: 5, 10, 15, 30 and 45 minutes and 1, 2, 4, 6, 8, 12 and 16 hours post-dose • Day 3: pre-dose and at 5, 10, 15, 30 and 45 minutes and 1, 2, 4, 6, 8, 12, 16 and 24 hours post-dose • Day 5: pre-dose and at 5, 10, 15, 30 and 45 minutes and 1, 2, 4, 6, 8, 12, 16 and 24 hours post-dose
The times of the blood sampling were generally adhered to. The greatest deviation from the scheduled timepoints was one minute late at the 5 minute timepoint on Day 3. The blood samples were centrifuged within one hour of sample collection and the resultant plasma was frozen prior to analysis.
The plasma concentrations of compound 10 were determined after solid phase extraction of the plasma samples followed by high performance liquid chromatography with tandem mass spectrometric detection (LC-MS/MS) using a sample volume of about 100 microL.
Internal standard solution, containing the internal standard of compound 10 was added to thawed plasma samples (100 microL aliquot). The SPE plate (Oasis HLB, 10 mg) was conditioned with methanol (500 microL) followed by water (500 microL). The sample (approx. 500 microL aliquot) was transferred to the pre-conditioned SPE plate. The sample was then passed through the cartridge, which was then washed with water:methanol (90:10 v/v, 0.5 mL). The sample was then eluted into a fresh 96 well polypropylene collection plate with 20 mM ammonium formate (aq): acetonitrile: formic acid (50:50:2 v/v/v, 250 microL). The organic component of the eluted samples was then evaporated under a gentle stream of nitrogen until approximately 50% of the original volume was remaining. […]

[1] = IV 0.0025 mg/kg, individual animals 1-3, hydrobromide, 0.0025 mg/kg
[2] = buccal 0.010 mg/kg, individual animals 1-3, hydrobromide
[3] = buccal 40 μg/kg versus 10 μg/kg, males
[4] = buccal 0.040 mg/kg, individual animals 1-3, hydrobromide
[5] = buccal, 0.010 to 0.040 mg/kg (4-fold dose increase)

CCCN1CCC[C@@H]2Cc3c(ccc(O)c3O)C[C@H]21 [compound 10, (4aR,10aR)-1-n-Propyl-1,2,3,4,4a,5,10,10a-octahydro-benzo[g]quinoline-6,7-diol hydrobromide]
Plasma concentration Day 1 Hour 0.08 [1]: 1.72 ng/mL and 1.92 ng/mL | Plasma concentration Day 1 Hour 0.17 [1]: 0.976 ng/mL and 1.26 ng/mL | Plasma concentration Day 1 Hour 0.25 [1]: 1.17 ng/mL and 0.828 ng/mL | Plasma concentration Day 1 Hour 0.5 [1]: 0.922 ng/mL and 0.536 ng/mL | Plasma concentration Day 1 Hour 0.75 [1]: 0.656 ng/mL and 0.667 ng/mL | Plasma concentration Day 1 Hour 1 [1]: 0.432 ng/mL and 0.451 ng/mL | Plasma concentration Day 1 Hour 2 [1]: 0.196 ng/mL and 0.352 ng/mL | Plasma concentration Day 1 Hour 4 [1]: 0.0763 ng/mL and 0.115 ng/mL | Plasma concentration Day 1 Hour 6 [1]: 0.0562 ng/mL and 0.0756 ng/mL | Plasma concentration Day 1 Hour 8 [1]: 0.0339 ng/mL and 0.0407 ng/mL | Plasma concentration Day 1 Hour 12 [1]: 0.0299 ng/mL and 0.0209 ng/mL | Plasma concentration Day 1 Hour 16 (IV 0.0025 mg/kg, individual animals 1-3, values below LLOQ 10 pg/mL estimated, hydrobromide, 0.0025 mg/kg): 0.00925 ng/mL and 0.0101 ng/mL | time of maximum plasma concentration (IV bolus 0.0025 mg/kg, first sampling time): 5 min | time of maximum plasma concentration (buccal 0.010 mg/kg and 0.040 mg/kg): about 0.75 hours | Plasma concentration Day 1 Hour 4 [2]: 0.0983 ng/mL and 0.0917 ng/mL and 0.206 ng/mL | Plasma concentration Day 1 Hour 6 [2]: 0.0845 ng/mL and 0.0265 ng/mL and 0.0758 ng/mL | Plasma concentration Day 1 Hour 8 [2]: 0.0467 ng/mL and 0.0261 ng/mL and 0.0554 ng/mL | Plasma concentration Day 1 Hour 12 [2]: 0.0268 ng/mL and 0.0234 ng/mL and 0.157 ng/mL | Plasma concentration Day 3 Hour 0.08 [2]: 0.0161 ng/mL and 0.379 ng/mL and 0.0552 ng/mL | Plasma concentration Day 3 Hour 0.17 [2]: 0.117 ng/mL and 0.105 ng/mL and 0.221 ng/mL | Plasma concentration Day 3 Hour 0.25 [2]: 0.134 ng/mL and 0.185 ng/mL and 0.622 ng/mL | Plasma concentration Day 3 Hour 0.5 [2]: 0.758 ng/mL and 0.556 ng/mL | Plasma concentration Day 3 Hour 0.75 [2]: 1.1 ng/mL and 0.964 ng/mL | Plasma concentration Day 3 Hour 1 [2]: 0.791 ng/mL and 0.817 ng/mL | Plasma concentration Day 3 Hour 2 [2]: 0.501 ng/mL and 0.372 ng/mL | Plasma concentration Day 1 Hour 24 (buccal 0.010 mg/kg, individual animals 1-3, values below LLOQ 10 pg/mL estimated, hydrobromide): <0.002 ng/mL and 0.00494 ng/mL and 0.0261 ng/mL | Increase in AUC0-∞ (first line) [3]: 12.1 fold | Increase in AUC0-∞ (second line) [3]: 18.9 fold | increase in Cmax [3]: 11.9 fold | Plasma concentration Day 1 Hour 4 [4]: 2.56 ng/mL and 0.746 ng/mL and 2.49 ng/mL | Plasma concentration Day 1 Hour 6 [4]: 0.781 ng/mL and 0.278 ng/mL and 1.73 ng/mL | Plasma concentration Day 1 Hour 8 [4]: 0.445 ng/mL and 0.212 ng/mL and 0.91 ng/mL | Plasma concentration Day 1 Hour 12 [4]: 0.272 ng/mL and 0.139 ng/mL and 1.4 ng/mL | Plasma concentration Day 1 Hour 16 [4]: 0.142 ng/mL and 0.0584 ng/mL and 0.677 ng/mL | Plasma concentration Day 1 Hour 24 [4]: 0.0443 ng/mL and 0.0789 ng/mL and 0.233 ng/mL | Plasma concentration Day 5 Hour 0.08 [4]: 2.75 ng/mL and 0.695 ng/mL and 0.427 ng/mL | Plasma concentration Day 5 Hour 0.17 [4]: 6.06 ng/mL and 1.93 ng/mL and 1.82 ng/mL | Plasma concentration Day 5 Hour 0.25 [4]: 9.14 ng/mL and 3.33 ng/mL and 3.89 ng/mL | Plasma concentration Day 5 Hour 0.5 [4]: 8.23 ng/mL and 5.31 ng/mL | Plasma concentration Day 5 Hour 0.75 [4]: 10.7 ng/mL and 10.5 ng/mL | Plasma concentration Day 5 Hour 1 [4]: 10.8 ng/mL and 9.58 ng/mL | Plasma concentration Day 5 Hour 2 [4]: 8.68 ng/mL and 6.34 ng/mL and 3.88 ng/mL | increase in AUC0-∞ [5]: 12 fold | increase in Cmax [5]: 12 fold | concentration at 0.5 h (male, Göttingen, in vivo, 0.01 mg/kg, buccal 0.010 mg/kg, individual animals 1-3, read-out: Plasma concentration Day 3 Hour 0.5): 0.943 ng/mL | concentration at 0.75 h (male, Göttingen, in vivo, 0.01 mg/kg, buccal 0.010 mg/kg, individual animals 1-3, read-out: Plasma concentration Day 3 Hour 0.75): 1.07 ng/mL | concentration at 1 h (male, Göttingen, in vivo, 0.01 mg/kg, buccal 0.010 mg/kg, individual animals 1-3, read-out: Plasma concentration Day 3 Hour 1): 1 ng/mL | concentration at 2 h (male, Göttingen, in vivo, 0.01 mg/kg, buccal 0.010 mg/kg, individual animals 1-3, read-out: Plasma concentration Day 3 Hour 2): 0.589 ng/mL | concentration at 16 h (male, Göttingen, in vivo, 0.01 mg/kg, buccal 0.010 mg/kg, individual animals, below LLOQ 10 pg/mL, estimated, read-out: Plasma concentration Day 1 Hour 16): 0.00691 ng/mL | concentration at 16 h (male, Göttingen, in vivo, 0.01 mg/kg, buccal 0.010 mg/kg, mean (one animal only), read-out: Plasma concentration Day 1 Hour 16, Mean): 0.00691 ng/mL | concentration at 4 h (male, Göttingen, in vivo, 0.01 mg/kg, buccal 0.010 mg/kg, mean, read-out: Plasma concentration Day 1 Hour 4, Mean): 0.132 ng/mL | concentration at 6 h (male, Göttingen, in vivo, 0.01 mg/kg, buccal 0.010 mg/kg, mean, read-out: Plasma concentration Day 1 Hour 6, Mean): 0.0623 ng/mL | concentration at 8 h (male, Göttingen, in vivo, 0.01 mg/kg, buccal 0.010 mg/kg, mean, read-out: Plasma concentration Day 1 Hour 8, Mean): 0.0427 ng/mL | concentration at 12 h (male, Göttingen, in vivo, 0.01 mg/kg, buccal 0.010 mg/kg, mean, read-out: Plasma concentration Day 1 Hour 12, Mean): 0.0691 ng/mL | concentration at 24 h (male, Göttingen, in vivo, 0.01 mg/kg, buccal 0.010 mg/kg, mean, read-out: Plasma concentration Day 1 Hour 24, Mean): 0.0155 ng/mL | concentration at 0.08 h (male, Göttingen, in vivo, 0.01 mg/kg, buccal 0.010 mg/kg, mean, read-out: Plasma concentration Day 3 Hour 0.08, Mean): 0.15 ng/mL
